Columns and labels:
blackgrass [1] = test: Test A postemergence herbicide test; format: in vivo, Alopecurus myosuroides; conditions: for Plant response rating, Blackgrass: 125 g ai/ha, 0 to 100 scale, 0 is no effect, 100 is complete control; for Blackgrass plant response rating (0 to 100 scale, 0 is no effect, 100 is complete control): 500 g ai/ha
Procedure, shortened: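 Young potted plants in a loam–sand mix, one- to two-leaf stage and 2–10 cm tall, receive the test chemical postemergence and stay in a greenhouse for approximately 10 days. Injury is then judged by eye against untreated plants, scored 0 (none) to 100 (complete control).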

rice = test: Test C flooded paddy test; format: in vivo, Oryza sativa; conditions: Flood
Procedure, shortened: (§1)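 Plants grown to the 2-leaf stage; pots flooded to 3 cm above soil and compound applied directly into the paddy water, depth kept throughout. Greenhouse 13 to 15 days, then visual rating vs untreated controls on 0–100 scale (0 no effect, 100 complete control); dash means no result.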

kochia = test: Test C pre-/postemergence herbicide test; format: in vivo, Kochia scoparia; conditions: Postemergence
Procedure, shortened: (§2)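 Test compounds, formulated in a surfactant-containing non-phytotoxic solvent blend, are applied to seeded loam/sand soil (preemergence) and to young plants at the 1- to 4-leaf stage in peat-based medium (postemergence). Plants stay 13 to 15 days under greenhouse conditions, then are scored visually relative to controls, 0 = no effect, 100 = complete control.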

sedge, umbrella = test: Test C flooded paddy test; format: in vivo, Cyperus difformis; conditions: Flood
Procedure, shortened: as §1

foxtail, giant = test: Test C pre-/postemergence herbicide test; format: in vivo, Setaria faberii
Procedure, shortened: as §2

velvetleaf = test: Test C pre-/postemergence herbicide test; format: in vivo, Abutilon theophrasti
Procedure, shortened: as §2

barnyardgrass = test: Test C pre-/postemergence herbicide test; format: in vivo, Echinochloa crus-galli; conditions: for Barnyardgrass plant response rating: scale 0 to 100, 0 is no effect and 100 is complete control
Procedure, shortened: as §2

galium = test: Test C pre-/postemergence herbicide test; format: in vivo, Galium aparine
Procedure, shortened: as §2

blackgrass [2] = test: Test C pre-/postemergence herbicide test; format: in vivo, Alopecurus myosuroides; conditions: for Blackgrass plant response rating: scale 0 to 100, 0 is no effect and 100 is complete control
Procedure, shortened: as §2

[3] = 125 g ai/ha, scale of 0 to 100 where 0 is no effect and 100 is complete control, 13 to 15 days
[4] = 250 g ai/ha, scale of 0 to 100 where 0 is no effect and 100 is complete control, 13 to 15 days
[5] = 31 g ai/ha, scale 0 to 100 (0 no effect, 100 complete control)
[6] = 62 g ai/ha, scale 0 (no effect) to 100 (complete control)
[7] = 125 g ai/ha, scale 0 to 100 (0 no effect, 100 complete control)
[8] = 250 g ai/ha, scale 0 to 100 (0 no effect, 100 complete control)
[9] = Postemergence, 31 g ai/ha, scale 0 to 100 (0 no effect, 100 complete control)
[10] = Postemergence, 62 g ai/ha, scale 0 (no effect) to 100 (complete control)
[11] = Postemergence, 125 g ai/ha, scale 0 to 100 (0 no effect, 100 complete control)
[12] = Postemergence, 250 g ai/ha, scale 0 to 100 (0 no effect, 100 complete control)
[13] = Preemergence, 31 g ai/ha, scale 0 to 100, 0 is no effect and 100 is complete control
[14] = Preemergence, 62 g ai/ha, scale 0 to 100 (0 no effect, 100 complete control)
[15] = Preemergence, 125 g ai/ha, scale 0 to 100 (0 no effect, 100 complete control)
[16] = Preemergence, 62 g ai/ha, scale 0 to 100

O=C1NC[C@H](c2cccc(C(F)(F)F)c2)[C@H]1C(=O)Nc1ccccc1F [Compound 204, (3R,4S)—N-(2-fluorophenyl)-2-oxo-4-[3-(trifluoromethyl)phenyl]-3-pyrrolidinecarboxamide]
Plant response rating, Blackgrass (blackgrass [1]): 70
Blackgrass plant response rating (0 to 100 scale, 0 is no effect, 100 is complete control) (blackgrass [1]): 80
Plant response rating, Rice (rice; [3]): 0
Plant response rating, Rice (rice; [4]): 0
Plant response rating, Rice (rice; 500 g ai/ha, scale 0 to 100): 0
Plant response rating, Rice (rice; 1000 g ai/ha, scale 0 to 100): 10
Plant response rating, Kochia (kochia; [5]): 10
Plant response rating, Kochia (kochia; [6]): 30
Plant response rating, Kochia (kochia; [7]): 40
Plant response rating, Kochia (kochia; [8]): 40
Plant response rating, Sedge, Umbrella (sedge, umbrella; [3]): 0
Plant response rating, Sedge, Umbrella (sedge, umbrella; [4]): 0
Plant response rating, Sedge, Umbrella (sedge, umbrella; 500 g ai/ha, scale 0 to 100): 0
Plant response rating, Sedge, Umbrella (sedge, umbrella; 1000 g ai/ha, scale 0 to 100): 0
Plant response rating, Foxtail, Giant (foxtail, giant; [9]): 0
Plant response rating, Foxtail, Giant (foxtail, giant; [10]): 10
Plant response rating, Foxtail, Giant (foxtail, giant; [11]): 90
Plant response rating, Foxtail, Giant (foxtail, giant; [12]): 90
Foxtail, Giant plant response rating (foxtail, giant; [13]): 90
Foxtail, Giant plant response rating (foxtail, giant; [14]): 90
Plant response rating, Foxtail, Giant (foxtail, giant; [15]): 95
Plant response rating (scale of 0 to 100), Foxtail, Giant (foxtail, giant; Preemergence, 250 g ai/ha): 95
Plant response rating, Velvetleaf (velvetleaf; [9]): 0
Plant response rating, Velvetleaf (velvetleaf; [10]): 0
Plant response rating, Velvetleaf (velvetleaf; [11]): 0
Plant response rating, Velvetleaf (velvetleaf; [12]): 10
Velvetleaf plant response rating (velvetleaf; [13]): 0
Velvetleaf plant response rating (velvetleaf; [14]): 0
Plant response rating, Velvetleaf (velvetleaf; [15]): 0
Plant response rating (scale of 0 to 100), Velvetleaf (velvetleaf; Preemergence, 250 g ai/ha): 30
Plant response rating, Barnyardgrass (barnyardgrass; [9]): 5
Plant response rating, Barnyardgrass (barnyardgrass; [10]): 55
Plant response rating, Barnyardgrass (barnyardgrass; [11]): 80
Plant response rating, Barnyardgrass (barnyardgrass; [12]): 90
Barnyardgrass plant response rating (barnyardgrass; Preemergence, 31 g ai/ha): 80
Plant response rating, Barnyardgrass (barnyardgrass; [16]): 90
Plant response rating, Barnyardgrass (barnyardgrass; [15]): 95
Plant response rating (scale of 0 to 100; 0 is no effect, 100 is complete control), Barnyardgrass (barnyardgrass; Preemergence, 250 g ai/ha): 95
Plant response rating, Galium (galium; [9]): 10
Plant response rating, Galium (galium; [10]): 45
Plant response rating, Galium (galium; [11]): 60
Plant response rating, Galium (galium; [12]): 60
Galium plant response rating (galium; [14]): 90
Plant response rating, Galium (galium; [15]): 90
Plant response rating (scale of 0 to 100), Galium (galium; Preemergence, 250 g ai/ha): 90
Plant response rating, Blackgrass (blackgrass [2]; [9]): 0
Plant response rating, Blackgrass (blackgrass [2]; [10]): 0
Plant response rating, Blackgrass (blackgrass [2]; [11]): 0
Plant response rating, Blackgrass (blackgrass [2]; [12]): 50
Blackgrass plant response rating (blackgrass [2]; Preemergence, 31 g ai/ha): 90
Plant response rating, Blackgrass (blackgrass [2]; [16]): 90
Plant response rating, Blackgrass (blackgrass [2]; [15]): 90
Plant response rating (scale of 0 to 100), Blackgrass (blackgrass [2]; Preemergence, 250 g ai/ha): 90

O=C1NC[C@H](c2cccc(C(F)(F)F)c2)[C@H]1C(=O)Nc1cccc(F)c1F [Compound 206]
Plant response rating, Blackgrass (blackgrass [1]): 70
Blackgrass plant response rating (0 to 100 scale, 0 is no effect, 100 is complete control) (blackgrass [1]): 80
Plant response rating, Rice (rice; [3]): 0
Plant response rating, Rice (rice; [4]): 0
Plant response rating, Rice (rice; 500 g ai/ha, scale 0 to 100): 15
Plant response rating, Rice (rice; 1000 g ai/ha, scale 0 to 100): 15
Plant response rating, Kochia (kochia; [5]): 50
Plant response rating, Kochia (kochia; [6]): 70
Plant response rating, Kochia (kochia; [7]): 30
Plant response rating, Kochia (kochia; [8]): 70
Plant response rating, Sedge, Umbrella (sedge, umbrella; [3]): 0
Plant response rating, Sedge, Umbrella (sedge, umbrella; [4]): 0
Plant response rating, Sedge, Umbrella (sedge, umbrella; 500 g ai/ha, scale 0 to 100): 0
Plant response rating, Sedge, Umbrella (sedge, umbrella; 1000 g ai/ha, scale 0 to 100): 0
Plant response rating, Foxtail, Giant (foxtail, giant; [9]): 0
Plant response rating, Foxtail, Giant (foxtail, giant; [10]): 50
Plant response rating, Foxtail, Giant (foxtail, giant; [11]): 50
Plant response rating, Foxtail, Giant (foxtail, giant; [12]): 85
Foxtail, Giant plant response rating (foxtail, giant; [13]): 90
Foxtail, Giant plant response rating (foxtail, giant; [14]): 90
Plant response rating, Foxtail, Giant (foxtail, giant; [15]): 95
Plant response rating (scale of 0 to 100), Foxtail, Giant (foxtail, giant; Preemergence, 250 g ai/ha): 95
Plant response rating, Velvetleaf (velvetleaf; [9]): 0
Plant response rating, Velvetleaf (velvetleaf; [10]): 0
Plant response rating, Velvetleaf (velvetleaf; [11]): 15
Plant response rating, Velvetleaf (velvetleaf; [12]): 15
Velvetleaf plant response rating (velvetleaf; [13]): 0
Velvetleaf plant response rating (velvetleaf; [14]): 50
Plant response rating, Velvetleaf (velvetleaf; [15]): 40
Plant response rating (scale of 0 to 100), Velvetleaf (velvetleaf; Preemergence, 250 g ai/ha): 60
Plant response rating, Barnyardgrass (barnyardgrass; [9]): 25
Plant response rating, Barnyardgrass (barnyardgrass; [10]): 40
Plant response rating, Barnyardgrass (barnyardgrass; [11]): 80
Plant response rating, Barnyardgrass (barnyardgrass; [12]): 80
Barnyardgrass plant response rating (barnyardgrass; Preemergence, 31 g ai/ha): 90
Plant response rating, Barnyardgrass (barnyardgrass; [16]): 90
Plant response rating, Barnyardgrass (barnyardgrass; [15]): 95
Plant response rating (scale of 0 to 100; 0 is no effect, 100 is complete control), Barnyardgrass (barnyardgrass; Preemergence, 250 g ai/ha): 95
Plant response rating, Galium (galium; [9]): 60
Plant response rating, Galium (galium; [10]): 75
Plant response rating, Galium (galium; [11]): 75
Plant response rating, Galium (galium; [12]): 75
Galium plant response rating (galium; [13]): 20
Galium plant response rating (galium; [14]): 70
Plant response rating, Galium (galium; [15]): 70
Plant response rating (scale of 0 to 100), Galium (galium; Preemergence, 250 g ai/ha): 85
Plant response rating, Blackgrass (blackgrass [2]; [9]): 0
Plant response rating, Blackgrass (blackgrass [2]; [10]): 0
Plant response rating, Blackgrass (blackgrass [2]; [11]): 40
Plant response rating, Blackgrass (blackgrass [2]; [12]): 60
Blackgrass plant response rating (blackgrass [2]; Preemergence, 31 g ai/ha): 85
Plant response rating, Blackgrass (blackgrass [2]; [16]): 90
Plant response rating, Blackgrass (blackgrass [2]; [15]): 90
Plant response rating (scale of 0 to 100), Blackgrass (blackgrass [2]; Preemergence, 250 g ai/ha): 90
